Test results as given in patent publication US20220054477A1, “INDUCTION OF SUSTAINED LOCAL INFLAMMATION” (Ascendis Pharma Oncology Division A/S, priority 2019, published 2022).
Marks after values point to notes of the source that are not given here.

What was measured:
IL-6 = assay: In vivo cytokine induction, plasma cytokine levels: IL-6 (Example 12); parameters: species or system BALB/C mice; conditions: single intratumoral dose
Method: Mice were subcutaneously implanted with 3×10^5 CT26 tumor cells in the left and right flanks. […] Hydrogels were administered as suspensions in PBST buffer. K2 EDTA-preserved blood samples were collected by retro-orbital bleed at various time points following drug administration and plasma was isolated following centrifugation at 2000×g for 5 minutes at 4° C. and frozen. Plasma samples were stored at −80° C. Plasma was thawed and undiluted samples were assessed for cytokine levels using the 36-Plex Mouse ProcartaPlex™ Cytokine Panel 1A (ThermoFisher Scientific) following manufacturer's recommendations. Cytokines were measured on the Bio-Plex 200 (BioRad) following kit instructions. For sample values below or at the lower limit of quantitation (LLOQ) of the assay, a value of 0.01 pg/mL was instead used in determining mean cytokine concentrations.

Cxcl1 = assay: PBMC gene expression (qPCR, 6 hours post-treatment): Cxcl1 (Example 17); type: in vivo, BALB/C mice
Method: (§1) Hydrogels were administered as suspensions in PTP buffer. […] Tumors were excised, weighed and snap frozen.
(§2) For PBMC isolations, approximately 600 μl of whole blood was collected via cardiac puncture. The collected whole blood from each individual mouse was diluted with a 1:1 ratio of pre-warmed PBS supplemented with 2% Fetal Bovine Serum (FBS). Then an equal volume of Histopaque-1083 was added to a new sterile 15 mL conical tube, where the diluted whole blood was layered over the Histopaque-1083. The mixture was then centrifuged at 400 g for 30 minutes. […]
(§3) Lysates from untreated control samples and 6 hour treated samples were thawed and RNA was isolated using the RNeasy Mini Kit (QIAGEN) following manufacturer's recommendations. […] RNA concentrations were measured using a NanoDrop (ThermoFisher) and then adjusted to […] with RNase-free water. RNA quality was assessed using a NanoDrop (ThermoFisher). […] 200 ng of cDNA was used for quantitative PCR using the RT^2 SYBR Green ROX qPCR Master mix (2×) kit (QIAGEN) following manufacturer's recommendations. […]
(§4) Cycle thresholds (CT) were collected using a 384-well platform ABI-7900H real-time qPCR system (Applied Biosystems). […] 2^ΔΔCT values were calculated with the following formula: […]
(§5) For each gene, 3 technical replicates were analyzed per biological replicate. Undetermined technical replicate CT values were recorded as zero ΔCT values. […]

Cxcl2 = assay: PBMC gene expression (qPCR, 6 hours post-treatment): Cxcl2 (Example 17); type: in vivo, BALB/C mice
Method: as §1, §2, §3, §4, §5

Il10 = assay: PBMC gene expression (qPCR, 6 hours post-treatment): Il10 (Example 17); type: in vivo, BALB/C mice
Method: as §1, §2, §3, §4, §5

Ccl3 = assay: PBMC gene expression (qPCR, 6 hours post-treatment): Ccl3 (Example 17); type: in vivo, BALB/C mice
Method: as §1, §2, §3, §4, §5

CD8+ T cells = assay: Flow cytometry of tumor draining lymph nodes: frequency of CD8+ T cells of CD3+ T cells (Example 15); type: in vivo, BALB/C mice; conditions: 7 days after randomization
Method: Hydrogels were administered as suspension in PTP buffer. Some cohorts were further treated with 20 μg human IL-2 (Peprotech, Rocky Hill, N.J.), intraperitoneally (I.P.), twice a day for 5 days. Mice were sacrificed 7 days after randomization (D0). Following sacrifice, tumor draining lymph nodes were isolated from both flanks and were dissociated mechanically to generate a single cell suspension at a cell concentration of 1×10^6 cells per sample. Cell suspensions were centrifuged at 300 g for 5 minutes. Supernatants were discarded and cells were resuspended in FACS buffer with 1 μg/ml Fc-Block and incubated at 4° C. for 10 minutes in the dark. Surface marker antibody mixtures (antibody concentration: 10 μg/mL) in FACS buffer were added to each sample and samples were incubated in the dark at 4° C. for 30 minutes. Cells were centrifuged at 300 g for 5 minutes and supernatants were discarded. Cells were washed and then resuspended with FACS buffer before cytometer collection.
After collection, FACS data was analyzed using FlowJo Version 10.6.1. Compensation was digitally adjusted using single antibody-stained beads. Samples with less than 90% viability, as determined by LiveDead cell staining, were excluded from the analysis. […]

## Resiquimod [Compound 4]
IL-6; 1 h post-treatment
  IL-6 plasma level, Mean: 3618.87†, ‡ pg/mL
IL-6; 3 h post-treatment
  IL-6 plasma level, Mean: 1739.75†, ‡ pg/mL
IL-6; 6 h post-treatment
  IL-6 plasma level, Mean: 88.59 pg/mL
IL-6; 10 h post-treatment
  IL-6 plasma level, Mean: 154.51 pg/mL
IL-6; 24 h post-treatment
  IL-6 plasma level, Mean: 44.71 pg/mL
Cxcl1
  Cxcl1 Mean (2^ΔΔCT): 7.41
Cxcl1; ratio of 4 to 13i
  Cxcl1 Fold change (4/13i): 11.54
Cxcl2
  Cxcl2 Mean (2^ΔΔCT): 35.37
Cxcl2; ratio of 4 to 13i
  Cxcl2 Fold change (4/13i): 6.43
Il10
  Il10 Mean (2^ΔΔCT): 2.77†
Il10; ratio of 4 to 13i
  Il10 Fold change (4/13i): 2.29
Ccl3
  Ccl3 Mean (2^ΔΔCT): 1.43†
Ccl3; ratio of 4 to 13i
  Ccl3 Fold change (4/13i): 1.64
CD8+ T cells; injected right flank tumor
  Frequency of CD8+ T cells of CD3+ T cells, Mean: 29.23%
CD8+ T cells; uninjected left flank tumor
  Frequency of CD8+ T cells of CD3+ T cells, Mean: 29%
